Results as given in US10717716B2, “1,3,4-oxadiazole derivative compounds as histone deacetylase 6 inhibitor, and the pharmaceutical composition comprising the same” (Chong Kun Dang Pharmaceutical Corp., priority 2015, dated 2020).
Like-named read-outs stand apart in the source and are kept apart here.

Biological target: T1, human recombinant HDAC6 (Homo sapiens, UniProt Q9UBN7)
T1 construct: purchased Calbiochem 382180
T1 sequence (Q9UBN7 1-1215): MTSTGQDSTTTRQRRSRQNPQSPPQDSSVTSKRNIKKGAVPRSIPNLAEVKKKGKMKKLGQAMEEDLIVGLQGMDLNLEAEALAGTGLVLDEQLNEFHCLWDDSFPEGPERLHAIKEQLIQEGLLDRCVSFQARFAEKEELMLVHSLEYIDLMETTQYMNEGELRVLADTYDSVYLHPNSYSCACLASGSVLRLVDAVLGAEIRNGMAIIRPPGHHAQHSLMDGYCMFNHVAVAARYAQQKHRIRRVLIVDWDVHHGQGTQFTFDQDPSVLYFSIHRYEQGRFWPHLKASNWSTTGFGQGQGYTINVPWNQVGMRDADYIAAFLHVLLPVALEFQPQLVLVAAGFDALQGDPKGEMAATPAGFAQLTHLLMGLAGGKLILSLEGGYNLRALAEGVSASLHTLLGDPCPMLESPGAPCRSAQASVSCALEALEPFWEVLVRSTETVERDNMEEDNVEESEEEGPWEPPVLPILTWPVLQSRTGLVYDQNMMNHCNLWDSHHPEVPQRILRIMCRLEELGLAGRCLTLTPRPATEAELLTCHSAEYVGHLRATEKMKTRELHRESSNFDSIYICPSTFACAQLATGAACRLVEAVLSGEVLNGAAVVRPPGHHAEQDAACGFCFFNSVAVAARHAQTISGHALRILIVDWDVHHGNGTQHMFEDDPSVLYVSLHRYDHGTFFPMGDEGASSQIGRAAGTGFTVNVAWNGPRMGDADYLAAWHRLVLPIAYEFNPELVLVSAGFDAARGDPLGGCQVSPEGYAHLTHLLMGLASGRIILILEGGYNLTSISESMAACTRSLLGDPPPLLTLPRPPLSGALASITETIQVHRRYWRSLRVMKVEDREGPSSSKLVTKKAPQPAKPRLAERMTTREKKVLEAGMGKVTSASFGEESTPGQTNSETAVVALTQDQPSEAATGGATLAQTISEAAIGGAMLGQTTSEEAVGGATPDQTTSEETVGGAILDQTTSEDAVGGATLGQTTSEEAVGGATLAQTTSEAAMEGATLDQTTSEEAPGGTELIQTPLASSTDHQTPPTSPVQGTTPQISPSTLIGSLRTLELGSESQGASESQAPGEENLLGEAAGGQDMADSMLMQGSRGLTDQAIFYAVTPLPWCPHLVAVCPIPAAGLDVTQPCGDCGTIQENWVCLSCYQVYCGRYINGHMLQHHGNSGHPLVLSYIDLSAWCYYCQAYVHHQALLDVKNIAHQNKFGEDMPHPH
Test: HDAC6 enzyme activity inhibition assay (HDAC Fluorimetric Drug Discovery Kit)
Type: biochemical
Conditions: for HDAC6 selectivity (fold): HDAC6 over HDAC1; for IC50: human recombinant HDAC6, same protocol as HDAC1
Procedure, shortened: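 Human recombinant HDAC1 or HDAC6 (0.3 μg) reacted with 10 μM Fluor de Lys-SIRT1 substrate and 5-fold compound dilutions for 60 min at 30 °C. Developer II added for 30 min, fluorescence read at Ex 360/Em 460; IC50 calculated from the readings.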

SMILES | HDAC6 selectivity (fold) | IC50 (read-out: HDAC6) [nM] | IC50 (HDAC6 (nM)) [nM]
CS(=O)(=O)c1ccc(N(Cc2ccc(-c3nnc(C(F)F)o3)cc2)C(=O)N2CCOCC2)cc1 [Compound 21444, N-(4-(5-(difluoromethyl)-1,3,4-oxadiazol-2-yl)benzyl)-N-(4-(methylsulfonyl)phenyl)morpholine-4-carboxamide] | 57 | 175 | 
O=C(N1CCS(=O)(=O)CC1)N(Cc1ccc(-c2nnc(C(F)F)o2)cc1Cl)c1ccccc1 [Compound 21411, N-(2-chloro-4-(5-(difluoromethyl)-1,3,4-oxadiazol-2-yl)benzyl)-N-phenylthiomorpholine-4-carboxamide 1,1-dioxide] | 5 | 2150 | 
Cc1ccc(N(Cc2ccc(-c3nnc(C(F)F)o3)cn2)C(=O)N2CCN(C)CC2)cc1 [Compound 21598, N-((5-(5-(difluoromethyl)-1,3,4-oxadiazol-2-yl)pyridin-2-yl)methyl)-4-methyl-N-(p-tolyl)piperazine-1-carboxamide] | 238 | 42 | 
Cn1ncc2cccc(N(Cc3ccc(-c4nnc(C(F)F)o4)cc3F)C(=O)N3CCS(=O)(=O)CC3)c21 [Compound 21708, N-(4-(5-(Difluoromethyl)-1,3,4-oxadiazol-2-yl)-2-fluorobenzyl)-N-(1-methyl-1H-indazol-7-yl)thiomorpholine-4-carboxamide 1,1-dioxide] | 167 | 60 | 
O=C(N1CCS(=O)(=O)CC1)N(Cc1ccc(-c2nnc(C(F)(F)F)o2)cc1F)c1ccc(OC(F)(F)F)cc1 [Compound 21513, N-(2-fluoro-4-(5-(trifluoromethyl)-1,3,4-oxadiazol-2-yl)benzyl)-N-(4-(trifluoromethoxy)phenyl)thiomorpholine-4-carboxamide 1,1-dioxide] | 47 | 212 | 
CCN1CCN(C(=O)N(Cc2ccc(-c3nnc(C(F)F)o3)cn2)c2cccc(OC)c2)CC1 [Compound 21891, N-((5-(5-(Difluoromethyl)-1,3,4-oxadiazol-2-yl)pyridin-2-yl)methyl)-4-ethyl-N-(3-methoxyphenyl)piperazine-1-carboxamide] | 174 | 57 | 
CCN1CCN(Cc2cccc(N(Cc3ccc(-c4nnc(C(F)F)o4)cc3F)C(=O)N3CCS(=O)(=O)CC3)c2)CC1 [Compound 22024, N-(4-(5-(difluoromethyl)-1,3,4-oxadiazol-2-yl)-2-fluorobenzyl)-N-(3-((4-ethylpiperazin-1-yl)methyl)phenyl)thiomorpholine-4-carboxamide 1,1-dioxide] | 36 | 281 | 
O=C(Oc1ccccc1)N(Cc1ccc(-c2nnc(C(F)F)o2)cc1)c1ccccc1 [Compound 21569, Phenyl (4-(5-(difluoromethyl)-1,3,4-oxadiazol-2-yl)benzyl)(phenyl)carbamate] | 59 |  | 170
O=C(NCCN1CCN(CCO)CC1)N(Cc1ccc(-c2nnc(C(F)F)o2)cc1F)c1ccccc1 [Compound 21996, 1-(4-(5-(Difluoromethyl)-1,3,4-oxadiazol-2-yl)-2-fluorobenzyl)-3-(2-(4-(2-hydroxyethyl)piperazin-1-yl)ethyl)-1-phenylurea] | 108 | 92 | 
O=C(N1CCC2(CC1)CNC2)N(Cc1ccc(-c2nnc(C(F)F)o2)cc1F)c1ccccc1 [Compound 21495, N-(4-(5-(difluoromethyl)-1,3,4-oxadiazol-2-yl)-2-fluorobenzyl)-N-phenyl-2,7-diazaspiro[3.5]nonane-7-carboxamide] | 294 | 34 | 
CN1CCN(C(=O)N(Cc2ccc(-c3nnc(C(F)(F)F)o3)cc2F)c2ccc(F)c(Cl)c2)CC1 [Compound 21564, N-(3-chloro-4-fluorophenyl)-N-(2-fluoro-4-(5-(trifluoromethyl)-1,3,4-oxadiazol-2-yl)benzyl)-4-methylpiperazine-1-carboxamide] | 88 | 113 | 
CCN1CCN(CCOc2ccc(N(Cc3ccc(-c4nnc(C(F)F)o4)cc3F)C(=O)N3CCS(=O)(=O)CC3)cc2)CC1 [Compound 21971, N-(4-(5-(difluoromethyl)-1,3,4-oxadiazol-2-yl)-2-fluorobenzyl)-N-(4-(2-(4-ethylpiperazin-1-yl)ethoxy)phenyl)thiomorpholine-4-carboxamide 1,1-dioxide] | 59 | 169 | 
CCN1CCN(C(=O)N(Cc2ccc(-c3nnc(C(F)F)o3)cc2F)c2cccc(Cl)c2F)CC1 [Compound 21646, N-(3-chloro-2-fluorophenyl)-N-(4-(5-(difluoromethyl)-1,3,4-oxadiazol-2-yl)-2-fluorobenzyl)-4-ethylpiperazine-1-carboxamide] | 317 | 32 | 
O=C(CN1CCN(CCNC(=O)N(Cc2ccc(-c3nnc(C(F)F)o3)cc2F)c2ccccc2)CC1)N1CCOCC1 [Compound 21984, 1-(4-(5-(Difluoromethyl)-1,3,4-oxadiazol-2-yl)-2-fluorobenzyl)-3-(2-(4-(2-morpholino-2-oxoethyl)piperazin-1-yl)ethyl)-1-phenylurea] | 107 | 93 | 

Further lines, with some results ahead:

HDAC6 selectivity (fold) | IC50 (read-out: HDAC6) [nM] | SMILES | IC50 (HDAC6 (nM)) [nM]
156 | 64 | CN1CCN(C(=O)N(Cc2ccc(-c3nnc(C(F)F)o3)cc2F)c2ccc(-c3ccncc3)cc2)CC1 [Compound 21541, N-(4-(5-(difluoromethyl)-1,3,4-oxadiazol-2-yl)-2-fluorobenzyl)-4-methyl-N-(4-(pyridin-4-yl)phenyl)piperazine-1-carboxamide] | 
81 | 123 | CCN1CCN(CCNC(=O)N(Cc2ccc(-c3nnc(C(F)F)o3)cc2F)c2ccccc2)CC1 [Compound 21994, 1-(4-(5-(Difluoromethyl)-1,3,4-oxadiazol-2-yl)-2-fluorobenzyl)-3-(2-(4-ethylpiperazin-1-yl)ethyl)-1-phenylurea] | 
36 | 281 | COc1ccccc1CCN(Cc1ccc(-c2nnc(C(F)F)o2)cc1F)C(=O)N1CCN(C)CC1 [Compound 21556, N-(4-(5-(difluoromethyl)-1,3,4-oxadiazol-2-yl)-2-fluorobenzyl)-N-(2-methoxyphenethyl)-4-methylpiperazine-1-carboxamide] | 
196 | 51 | Cc1cccc(N(Cc2ccc(-c3nnc(C(F)F)o3)cc2)C(=O)N2CCS(=O)(=O)CC2)c1 [Compound 21476, N-(4-(5-(difluoromethyl)-1,3,4-oxadiazol-2-yl)benzyl)-N-(m-tolyl)thiomorpholine-4-carboxamide 1,1-dioxide] | 
33 | 305 | Cn1ccc2cc(N(Cc3ccc(-c4nnc(C(F)F)o4)cc3F)C(=O)N3CCS(=O)(=O)CC3)ccc21 [Compound 21799, N-(4-(5-(difluoromethyl)-1,3,4-oxadiazol-2-yl)-2-fluorobenzyl)-N-(1-methyl-1H-indol-5-yl)thiomorpholine-4-carboxamide 1,1-dioxide] | 
251 | 40 | CCN1CCN(C(=O)N(Cc2ccc(-c3nnc(C(F)F)o3)cn2)c2ccc(Cl)cc2)CC1 [Compound 21882, N-(4-Chlorophenyl)-N-((5-(5-(difluoromethyl)-1,3,4-oxadiazol-2-yl)pyridin-2-yl)methyl)-4-ethylpiperazine-1-carboxamide] | 
268 | 37 | CCN1CCN(C(=O)N(Cc2ccc(-c3nnc(C(F)F)o3)cc2)c2cccc(F)c2)CC1 [Compound 21883, N-(4-(5-(Difluoromethyl)-1,3,4-oxadiazol-2-yl)benzyl)-4-ethyl-N-(3-fluorophenyl)piperazine-1-carboxamide] | 
9 | 1090 | O=C(N1CCS(=O)(=O)CC1)N(Cc1ccc(-c2nnc(C(F)(F)F)o2)cc1)C1CCCC1 [Compound 21371, N-cyclopentyl-N-(4-(5-(trifluoromethyl)-1,3,4-oxadiazol-2-yl)benzyl)thiomorpholine-4-carboxamide 1,1-dioxide] | 
